Patent publication US20230043863A1, “HETEROAROMATIC DERIVATIVES FOR USE AS REGULATOR, PREPARATION METHOD THEREFOR AND USE THEREOF” (JIANGSU HANSOH PHARMACEUTICAL GROUP CO., LTD., priority 2018, published 2023)
pIC50: −log10 of the molar value. Where two headings read alike, the source gives them in different places.

Legend:
[1] = molecular target: TYK2 (Homo sapiens, UniProt P29597); assay: JAK kinase activity inhibition, TR-FRET (TYK2); type: biochemical; conditions: TR-FRET kinase assay
In short: (§1)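 Steps: compound dilutions added; JAK kinase (0.1-20 nM) in HEPES/MgCl2 buffer added; peptide substrate and ATP mix started the reaction, 0.5-5 h at room temperature; EDTA and labeled antibody added, 1-24 h further. IC50 derived from 620/665 nm signals by four-parameter nonlinear fitting.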

[2] = Balb/C mouse pharmacokinetics (plasma, colon, ileum); type: in vivo; conditions: male, po, Balb/C mice, p.o. 5 mg/kg; for Cmax: read-out: Blood concentration Cmax; for AUC(0-t): read-out: Curve area AUC0-t; for MRT: read-out: Mean detention time MRT; for Tmax: read-out: Time to peak tmax; for AUC(0-inf): read-out: Curve area AUC0-∞; for half-life: read-out: Half life period t1/2 (converted)
Text: Balb/C mouse was used as the test animal, the pharmacokinetic behavior in mice (plasma and colon, ileum tissue) was studied after oral administering the embodiment 1, embodiment 60, embodiment 169, embodiment 170, embodiment 171, embodiment 179, embodiment 191, embodiment 213, embodiment 214, embodiment 237, embodiment 238, embodiment 244, embodiment 246, embodiment 247, embodiment 257, embodiment 260, embodiment 262, embodiment 263, embodiment 267, embodiment 277, embodiment 278, embodiment 279, embodiment 288, embodiment 295, embodiment 299 and embodiment 301 at a dose of 5 mg/kg. After analyzing the drug concentration in the colon and ileum, the ratio of the drug concentration in the colon to that in ileum, and the ratio of the drug concentration in the colon to that in the plasma, the compounds with excellent PK were selected for further research.
12 Balb/C mice in each group, male, Shanghai Jiesjie Experimental Animal Co., Ltd., animal production license number (SCXK (Shanghai) 2013-0006 N0.311620400001794).
12 Balb/C mice in each group, male; p.o. after one night fast; the dose was 5 mg/kg; the administration volume was 10 mL/kg.
At 0, 0.5, 1, 2, 3, 5 and 7 hours before and after the administration, the mice were executed by CO2 and 0.2 mL of blood was collected from the heart, placed in an EDTA-K2 test tube, and centrifuged at 6000 rpm at 4° C. for 6 minutes to separate the plasma, which was then stored at −80° C. The ileum was taken close to the cecum end with a length of about 4-5 cm, and the colon was also taken close to the cecum end with a length of about 2-3 cm, weighed and placed in a 2 mL centrifuge tube, then stored at −80° C.
1) 40 uL of plasma sample was precipitated by adding 160 uL of acetonitrile, mixed and centrifuged at 3500×g for 5-20 minutes.
2) 30 μL of plasma and intestinal homogenate sample were precipitated by adding 90 of acetonitrile containing internal standard (100 ng/mL), mixed and centrifuged at 13000 rpm for 8 minutes.
3) 70 μL of the supernatant solution after treatment was collected and 70 μL of water was added thereto, vortexed and mixed for 10 minutes, and then 20 μL was collected to analyze the concentration of the test compound by LC/MS/MS. LC/MS/MS analysis instrument: AB Sciex API 4000 Qtrap.
Liquid phase conditions: Shimadzu LC-20AD Pump
Chromatographic column: Agilent ZORBAX XDB-C18 (50×2.1 mm, 3.5 μm) mobile phase: 0.1% formic acid aqueous solution as A solution, acetonitrile as B solution
Elution time: 0-4.0 minutes, the eluent is as follows:
The main pharmacokinetic parameters were calculated with WinNonlin 6.1, and the results of mouse pharmacokinetic experiments are shown in Table 3:
NA refers to none detected or not being tested (the detection limit of blood concentration was 1 ng/mL, when the Cmax in the blood test is NA, then NA in the blood test index refers to none detected; when the Cmax in the blood test is higher than the quantitative limit 1 ng/mL, then NA in the blood test index refers to not being tested; NA in the tissues (colon and ileum) refers to not being tested).

[3] = test system: JAK-STAT signal pathway of U266 cells; assay: Inhibition of cellular JAK-STAT signal pathway (STAT3 phosphorylation) in U266 cells; type: cell-based, human; conditions: Homo sapiens, U-266, INF-a 1000 U/mL stimulation
In short: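 U266 cells (100-300 K/well) preincubated 2 h at room temperature with serially diluted compound, then stimulated 15 min with IFN-α at 1000 U/mL final. After lysis, STAT3 phosphorylation read by LANCE Ultra TR-FRET (Eu antibody 0.5 nM, ULight antibody 5 nM, overnight) at 665 nm; IC50 from 4-parameter fit of inhibition versus DMSO and negative controls.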

[4] = molecular target: JAK1 (Homo sapiens, UniProt P23458); assay: JAK kinase activity inhibition, TR-FRET (JAK1); type: biochemical; conditions: TR-FRET kinase assay
In short: as §1

JAK1, sequence (P23458 whole entry): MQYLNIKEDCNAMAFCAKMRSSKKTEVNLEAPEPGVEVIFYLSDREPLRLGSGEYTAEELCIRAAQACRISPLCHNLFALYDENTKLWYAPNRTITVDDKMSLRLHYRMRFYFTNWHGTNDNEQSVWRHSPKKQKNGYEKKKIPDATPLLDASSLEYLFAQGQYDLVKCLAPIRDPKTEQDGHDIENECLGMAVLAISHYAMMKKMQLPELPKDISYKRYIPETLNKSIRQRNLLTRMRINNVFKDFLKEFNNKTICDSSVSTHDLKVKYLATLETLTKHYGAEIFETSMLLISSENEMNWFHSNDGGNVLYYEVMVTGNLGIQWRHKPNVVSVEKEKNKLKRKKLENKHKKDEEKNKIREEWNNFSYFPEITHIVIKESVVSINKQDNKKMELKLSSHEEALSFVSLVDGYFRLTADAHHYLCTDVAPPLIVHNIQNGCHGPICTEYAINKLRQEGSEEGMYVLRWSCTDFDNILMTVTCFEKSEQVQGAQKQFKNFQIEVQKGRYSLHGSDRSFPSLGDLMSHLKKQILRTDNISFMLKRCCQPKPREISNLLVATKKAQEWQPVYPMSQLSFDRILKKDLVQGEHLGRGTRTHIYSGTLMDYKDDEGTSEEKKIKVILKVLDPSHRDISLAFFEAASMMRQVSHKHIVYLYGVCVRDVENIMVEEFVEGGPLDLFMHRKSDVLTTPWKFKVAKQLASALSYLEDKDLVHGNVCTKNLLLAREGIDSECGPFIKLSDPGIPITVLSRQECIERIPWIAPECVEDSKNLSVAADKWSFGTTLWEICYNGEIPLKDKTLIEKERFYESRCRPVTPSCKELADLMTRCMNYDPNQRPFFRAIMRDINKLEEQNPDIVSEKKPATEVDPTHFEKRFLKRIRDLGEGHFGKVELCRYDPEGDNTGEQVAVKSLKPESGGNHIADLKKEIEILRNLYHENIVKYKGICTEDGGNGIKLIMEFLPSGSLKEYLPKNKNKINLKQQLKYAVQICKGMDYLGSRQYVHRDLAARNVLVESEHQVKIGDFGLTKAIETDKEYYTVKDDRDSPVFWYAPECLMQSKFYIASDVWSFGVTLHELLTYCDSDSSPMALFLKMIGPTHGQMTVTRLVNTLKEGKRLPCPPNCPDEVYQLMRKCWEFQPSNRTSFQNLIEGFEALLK
TYK2, sequence (P29597 whole entry): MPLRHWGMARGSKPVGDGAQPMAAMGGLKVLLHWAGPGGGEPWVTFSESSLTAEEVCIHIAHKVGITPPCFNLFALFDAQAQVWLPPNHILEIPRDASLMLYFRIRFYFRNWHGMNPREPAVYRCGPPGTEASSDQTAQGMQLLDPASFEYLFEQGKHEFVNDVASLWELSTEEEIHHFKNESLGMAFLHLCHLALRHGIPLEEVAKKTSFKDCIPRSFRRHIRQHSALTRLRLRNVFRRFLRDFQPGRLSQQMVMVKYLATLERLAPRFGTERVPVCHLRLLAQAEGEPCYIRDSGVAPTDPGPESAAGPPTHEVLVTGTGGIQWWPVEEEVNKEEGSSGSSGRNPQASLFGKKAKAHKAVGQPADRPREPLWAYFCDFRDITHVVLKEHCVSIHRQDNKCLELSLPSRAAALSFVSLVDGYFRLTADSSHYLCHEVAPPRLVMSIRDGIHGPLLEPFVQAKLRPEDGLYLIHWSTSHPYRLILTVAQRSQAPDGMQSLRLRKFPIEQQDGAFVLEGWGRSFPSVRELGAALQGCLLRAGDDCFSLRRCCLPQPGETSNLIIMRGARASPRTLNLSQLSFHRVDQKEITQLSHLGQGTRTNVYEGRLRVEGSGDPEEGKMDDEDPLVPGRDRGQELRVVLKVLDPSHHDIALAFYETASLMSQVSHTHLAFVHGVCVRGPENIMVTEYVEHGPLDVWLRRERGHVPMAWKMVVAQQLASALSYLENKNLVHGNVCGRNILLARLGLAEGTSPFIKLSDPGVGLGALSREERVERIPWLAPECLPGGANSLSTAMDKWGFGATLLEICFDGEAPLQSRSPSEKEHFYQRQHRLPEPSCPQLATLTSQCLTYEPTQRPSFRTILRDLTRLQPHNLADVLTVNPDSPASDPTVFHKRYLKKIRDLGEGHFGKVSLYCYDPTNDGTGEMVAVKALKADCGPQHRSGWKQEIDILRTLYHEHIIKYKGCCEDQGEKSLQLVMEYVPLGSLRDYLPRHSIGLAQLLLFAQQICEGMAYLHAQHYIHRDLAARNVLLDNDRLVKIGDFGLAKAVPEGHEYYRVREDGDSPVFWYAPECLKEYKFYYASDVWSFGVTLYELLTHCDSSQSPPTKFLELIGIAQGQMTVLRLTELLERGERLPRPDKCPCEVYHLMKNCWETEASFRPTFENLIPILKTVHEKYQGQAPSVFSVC

pIC50 [1]	Cmax ([2]; plasma, blood)	AUC(0-t) ([2]; plasma, blood)	MRT ([2]; plasma, blood)	Tmax ([2]; plasma, blood)	Cmax ([2]; colon)	AUC(0-t) ([2]; colon)	MRT ([2]; colon)	Tmax ([2]; colon)	Cmax ([2]; ileum)	AUC(0-t) ([2]; ileum)	MRT ([2]; ileum)	Tmax ([2]; ileum)	pIC50 [3]	pIC50 [4]	AUC(0-inf) ([2]; plasma, blood)	half-life ([2]; plasma, blood)	AUC(0-inf) ([2]; ileum)	half-life ([2]; ileum)	SMILES
9.25	6.01 ng/mL	10.6 ng·h/mL	1.92 h	0.5 h	295 ng/mL	948 ng·h/mL	4.94 h	7 h	531 ng/mL	1320 ng·h/mL	3.37 h	3 h	8.61	9.55	17.8 ng·h/mL	3.76 h	1350 ng·h/mL	0.89 h	Cc1cc(Nc2nc(N[C@@H]3C[C@@H]4CN(CCC#N)C[C@@H]4C3)nc3ccsc23)n[nH]1 [Embodiment 299, 3-(cis-5-((4-((5-methyl-1H-pyrazol-3-yl)amino)thieno[3,2-d]pyrimidin-2-yl)amino)hexahydrocyclopentadieno[c]pyrrole-2(1H)-yl)propionitrile]
9.35	69.4 ng/mL	143 ng·h/mL	1.65 h	1 h	1500 ng/mL	4240 ng·h/mL	4.74 h	5 h	21100 ng/mL	35300 ng·h/mL	1.23 h	1 h	8.90	8.79	145 ng·h/mL	1.07 h	35300 ng·h/mL	0.6 h	Cc1cc(Nc2nc(NC3CCN(CCC#N)CC3)nc3sccc23)n[nH]1 [Embodiment 301, 3-(4-((4-((5-methyl-1H-pyrazol-3-yl)amino)thieno[2,3-d]pyrimidin-2-yl)amino)piperidin-1-yl)propionitrile]

SMILES	pIC50 [1]	Cmax ([2]; plasma, blood)	AUC(0-t) ([2]; plasma, blood)	MRT ([2]; plasma, blood)	Tmax ([2]; plasma, blood)	Cmax ([2]; colon)	AUC(0-t) ([2]; colon)	MRT ([2]; colon)	Tmax ([2]; colon)	Cmax ([2]; ileum)	AUC(0-t) ([2]; ileum)	MRT ([2]; ileum)	Tmax ([2]; ileum)	pIC50 [3]	pIC50 [4]	AUC(0-inf) ([2]; plasma, blood)	half-life ([2]; plasma, blood)	AUC(0-inf) ([2]; ileum)	half-life ([2]; ileum)
Cc1cc(Nc2nc(N[C@@H]3C[C@H]4CC[C@@H](C3)N4CCC#N)nc3c2cnn3C)n[nH]1 [Embodiment 295, 3-((3-exo)-3-((1-methyl-4-((5-methyl-1H-pyrazol-3-yl)amino)-1H-pyrazolo[3,4-d]pyrimidin-6-yl)amino)-8-azabicyclo[3.2.1]oct-8-yl)propionitrile]	7.97	6.54 ng/mL	10.4 ng·h/mL	1.77 h	2 h	1030 ng/mL	3390 ng·h/mL	3.82 h	3 h	4300 ng/mL	10700 ng·h/mL	2.69 h	3 h	8.44	9.52	–	–	–	–
